Measurements: patent US4965280A, “Antifungal carbinols” (E. I. Du Pont de Nemours and Company, priority 1989, dated 1990)
Where two headings read alike, the source gives them in different places.

How the values were obtained:
Puccinia recondita = experiment: Example G wheat leaf rust; format: in vivo; conditions: 100 PPM, read-out: disease control rating, Ex. G
WILD BUCKWHEAT = experiment: Test E; format: in vivo, Polygonum convolvulus
Botrytis cinerea = experiment: Example C bean grey mold; format: in vivo; conditions: Botrytis cinerea, 24 h, 100 PPM; read-out: disease control rating, Ex. C
How it was run: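 Compound is first dissolved in acetone, the acetone making up 6% of the final volume. The solution is then suspended in purified water with 250 ppm of the polyhydric alcohol ester surfactant TREM 014 to give 100 or 20 ppm. Seedlings of broad bean receive this spray until liquid runs off.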

JET RAPE = experiment: Test E; format: in vivo, Brassica napus cv. Jet Neuf
Sclerotium rolfsii = experiment: Example M southern blight; format: in vivo; conditions: Agroathelia rolfsii, 336 h; 5 kg/ha; read-out: disease control rating, Ex. M
Protocol: […] Seeds and soil were then inoculated with a mixture of sand, cereal and mycelium of the fungus Sclerotium rolfsii, causal agent of sourthern blight, and incubated in a growth chamber at 30° C. for 14 days. Disease ratings were then made.

LAMBSQUARTER = experiment: Test E; format: in vivo, Chenopodium album
[1] = tested on: Candida albicans ATCC 11651; experiment: In vivo systemic Candida infection in mice, primary assay; set-up: species or system Candida albicans; CF-1 female mice; conditions: Candida albicans, 150 mg/kg per day, read-out: % Survival
How it was run: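 CF-1 female mice (20 g, 10 per group) were infected IV with 0.2 ml of 1×10^7/ml C. albicans ATCC 11651, then given test compound subcutaneously at 50 or 150 mg/kg/day at 1 and 6 h post-infection and once daily for three more days. Survival was followed for 21 days against infected untreated mice; ≥70% protection at 14 days was scored active.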

CMN CHICKWEED = experiment: Test E; format: in vivo, Stellaria media
Pyricularia oryzae = experiment: whole plant or invertebrate; format: in vivo; conditions: Pyricularia oryzae, 120 h, read-out: disease control rating, Ex. E, 100 PPM
WILD RADISH = experiment: Test E; format: in vivo, Raphanus raphanistrum
[2] = tested on: Cercosporidium personatum; experiment: Example B Peanut Late Leafspot; format: in vivo; conditions: Nothopassalora personata; 100 PPM; read-out: disease control rating, Ex. B
How it was run: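 Each compound is first taken up in acetone, which makes up 6% of the final spray volume. It is then suspended in purified water with 250 ppm TREM 014 at 100 or 20 ppm. Seedlings of peanut are sprayed until run-off.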

Structure (SMILES)	pest or weed control at 100 ppm (Puccinia recondita) [%]	plant response (WILD BUCKWHEAT; POSTEMERGENCE 0064 GM/HA) [%]	plant response (WILD BUCKWHEAT; POSTEMERGENCE 0125 GM/HA) [%]	plant response (WILD BUCKWHEAT; POSTEMERGENCE 0250 GM/HA) [%]	plant response (WILD BUCKWHEAT; POSTEMERGENCE 0500 GM/HA) [%]	pest or weed control at 100 ppm (Botrytis cinerea) [%]	plant response (JET RAPE; POSTEMERGENCE 0064 GM/HA) [%]	plant response (JET RAPE; POSTEMERGENCE 0125 GM/HA) [%]	plant response (JET RAPE; POSTEMERGENCE 0250 GM/HA) [%]	plant response (JET RAPE; POSTEMERGENCE 0500 GM/HA) [%]	plant response (LAMBSQUARTER; POSTEMERGENCE 0064 GM/HA) [%]	plant response (LAMBSQUARTER; POSTEMERGENCE 0125 GM/HA) [%]	plant response (LAMBSQUARTER; POSTEMERGENCE 0250 GM/HA) [%]	plant response (LAMBSQUARTER; POSTEMERGENCE 0500 GM/HA) [%]	responders at 150 mg/kg ([1]; ATCC11651, 168 h, day 7) [%]	responders at 150 mg/kg ([1]; ATCC11651, 336 h, day 14) [%]	plant response (CMN CHICKWEED; POSTEMERGENCE 0064 GM/HA) [%]	plant response (CMN CHICKWEED; POSTEMERGENCE 0125 GM/HA) [%]	plant response (CMN CHICKWEED; POSTEMERGENCE 0250 GM/HA) [%]	plant response (CMN CHICKWEED; POSTEMERGENCE 0500 GM/HA) [%]	also measured
C=C(c1ccc(F)cc1)C(O)(Cn1cncn1)c1ccc(F)cc1F (stereo not shown) [Example 4, 2-(2,4-Difluorophenyl)-3-(4-fluorophenyl)-1-(1H-1,2,4-triazol-1-yl)-3-buten-2-ol]	100	0	0	40	70	88	0	20	20	30	0	20	20	70	100	50	0	0	0	0	plant response (WILD BUCKWHEAT; PREEMERGENCE 0500 GM/HA): 40%; plant response (JET RAPE; PREEMERGENCE 0500 GM/HA): 40%; pest or weed control at 5000 g/ha (Sclerotium rolfsii): 0%; plant response (LAMBSQUARTER; PREEMERGENCE 0500 GM/HA): 100%; plant response (CMN CHICKWEED; PREEMERGENCE 0500 GM/HA): 0%; pest or weed control at 100 ppm (Pyricularia oryzae): 96%; plant response (WILD RADISH; POSTEMERGENCE 0064 GM/HA): 20%; plant response (WILD RADISH; POSTEMERGENCE 0125 GM/HA): 60%; plant response (WILD RADISH; POSTEMERGENCE 0250 GM/HA): 80%; plant response (WILD RADISH; POSTEMERGENCE 0500 GM/HA): 90%; plant response (WILD RADISH; PREEMERGENCE 0500 GM/HA): 50%; pest or weed control at 100 ppm [2]: 100%
C=C(c1ccccc1)C(O)(Cn1cncn1)c1ccc(Cl)cc1 (stereo not shown) [Example 51, 2-(4-Chlorophenyl)-3-phenyl-1-(1H-1,2,4-triazol-1-yl)-3-buten-2-ol]	100	0	0	0	0	96	0	0	0	20	0	0	20	40	100	100	0	0	0	0	plant response (WILD BUCKWHEAT; PREEMERGENCE 0500 GM/HA): 0%; plant response (JET RAPE; PREEMERGENCE 0500 GM/HA): 0%; plant response (LAMBSQUARTER; PREEMERGENCE 0500 GM/HA): 100%; responders at 150 mg/kg ([1]; ATCC11651, 504 h, day 21): 80%; plant response (CMN CHICKWEED; PREEMERGENCE 0500 GM/HA): 0%; pest or weed control at 100 ppm (Pyricularia oryzae): 0%; plant response (WILD RADISH; POSTEMERGENCE 0064 GM/HA): 0%; plant response (WILD RADISH; POSTEMERGENCE 0125 GM/HA): 30%; plant response (WILD RADISH; POSTEMERGENCE 0250 GM/HA): 30%; plant response (WILD RADISH; POSTEMERGENCE 0500 GM/HA): 60%; plant response (WILD RADISH; PREEMERGENCE 0500 GM/HA): 0%; pest or weed control at 100 ppm [2]: 100%
C=C(c1ccccc1)C(O)(Cn1cncn1)c1ccc(F)cc1F (stereo not shown) [Example 52, 2-(2,4-Difluorophenyl)-3-phenyl-1-(1H-1,2,4-triazol-1-yl)-3-buten-2-ol]	100	0	0	0	30	95	0	0	20	40	0	0	0	10	100	100	0	0	0	0	plant response (WILD BUCKWHEAT; PREEMERGENCE 0250 GM/HA): 20%; plant response (JET RAPE; PREEMERGENCE 0250 GM/HA): 20%; pest or weed control at 5000 g/ha (Sclerotium rolfsii): 0%; plant response (LAMBSQUARTER; PREEMERGENCE 0250 GM/HA): 100%; responders at 150 mg/kg ([1]; ATCC11651, 504 h, day 21): 90%; plant response (CMN CHICKWEED; PREEMERGENCE 0250 GM/HA): 0%; pest or weed control at 100 ppm (Pyricularia oryzae): 93%; plant response (WILD RADISH; POSTEMERGENCE 0064 GM/HA): 10%; plant response (WILD RADISH; POSTEMERGENCE 0125 GM/HA): 10%; plant response (WILD RADISH; POSTEMERGENCE 0250 GM/HA): 50%; plant response (WILD RADISH; POSTEMERGENCE 0500 GM/HA): 80%; plant response (WILD RADISH; PREEMERGENCE 0250 GM/HA): 50%; pest or weed control at 100 ppm [2]: 100%
